From PMC8321398, “The discovery of a novel series of compounds with single-dose efficacy against juvenile and adult Schistosoma species” (PLoS Neglected Tropical Diseases, 2021)
≈ marks a conversion by molar mass, not a printed value. Like-named read-outs stand apart in the source and are kept apart here.

What was measured:
Adult S. mansoni = assay: In vitro adult S. mansoni worm assay; type: cell-based; settings: Schistosoma mansoni, 120 h incubation
Text: (§1) The Puerto Rican strain of S. mansoni was maintained in Biomphalaria glabrata and CD1 mice. Oncomelania hupensis (hupensis) infected with S. japonicum (Chinese strain) and Bulinus truncatus (truncatus) infected with Egyptian strain S. haematobium were obtained from BEI Resources, NIAID, NIH. Infection of mice for worm recovery was as previously described except that, whereas cercariae of S. mansoni and S. haematobium were obtained by shedding from infected snails under lights, cercariae of S. japonicum were obtained by gently crushing the snails. Furthermore, adult S. haematobium were recovered after 12 weeks following mouse infection.
(§2) In vitro efficacy was carried out as previously described. In brief, worms were recovered from infected mice by portal perfusion 3 weeks (for juveniles) or 6 weeks (for adults) post-infection using warm perfusion medium (Dulbecco’s Modified Eagle’s Medium [DMEM], 2mM L-glutamine, 100 Units/ml penicillin, 100μg/ml streptomycin, 20mM Hepes, 10 Units/ml heparin [Sigma, UK]). Worms were washed free of red blood cells using the perfusion medium, and finally suspended in complete medium (cDMEM: DMEM, 2mM L-glutamine, 100 Units/ml penicillin, 100μg/ml streptomycin, 10% FCS). The juvenile assays were carried out in 96-well plates, each well containing 6–8 worms in 200 μL cDMEM. The adult worm assay was in 24-well plates, each well containing 3 worm pairs in 1mL cDMEM. Both the juvenile and adult worm cultures were kept at 37° C, in an atmosphere of 5% CO2. Drug effects were determined on day 5 following drug treatment by assessing the viability of individual worms as described in [14].

[1] = Metabolic stability in human hepatocytes; type: in vitro ADME; settings: hepatocytes (suspension), pH 7.4, 90 min incubation, read-out: Human hepatocyte % remaining at 90 min
Protocol: (§3) 100 μM compound stock solution was prepared from 5 μL of 4 mM stock in DMSO + 195 μL MeCN. Working solution (2 μM compound) was prepared using 10 μL of 100 μM stock + 490 μL buffer pH 7.4 (KHB supplemented with CaCl2, NaHCO3, HEPES, fructose, glycine; pH 7.4).
(§4) Working solution (25 μL, 2 μM) was added in duplicate to wells in a 0.5 mL per well, 96 well plate which was preincubated to reach 37°C. Hepatocyte suspension (25 μL) was added to each plate, and the plate incubated (37°C, 95% relative humidity with 5% CO2 supply) under gentle mixing (Thermomixer @300 rpm). After designated time periods, ice-cold MeCN (250 μL) was added with a suitable standard. For T = 0 min, ice-cold MeCN (250 μL) with suitable standard was added to the working solution (2 μM) and hepatocyte suspension (25 μL) added. The plates for each time point were shaken, sonicated for 5 mins and kept at 4°C until the final plate was processed. The plates were centrifuged at 4,000 rpm for 20 min, supernatant (110 μL) was mixed with water (110 μL) and the samples analysed using LC-MS/MS.

[2] = Plasma protein binding in mouse plasma at 10 uM, equilibrium dialysis; type: in vitro ADME
Protocol: (§5) Each experiment was performed in duplicate for the compound being tested. A working solution of compound was prepared from 10 μL of 10 mM solution in DMSO + 190 μL 40:60 MeCN:Water. A Total solution was prepared from 12 μL of working solution + 588 μL plasma (compound conc: 10 μM, DMSO: 0.1%, ACN:0.76%). In an equilibrium dialysis chamber, Total solution (200 μL) was added to the plasma chamber and PBS pH 7.4 (350 μL) was added to the buffer chamber. The chamber was then incubated at 37°C for 6 h with constant shaking at 400 rpm (Thermomixer comfort, Eppendorf). Aliquots were removed from both plasma and buffer chambers and the following test samples prepared: Blank: blank Plasma (20 μL) + blank buffer (60 μL), Buffer: blank plasma (20 μL) + test buffer (60 μL), Plasma: test plasma (20 μL) + blank buffer (60 μL), Total: total sample (20 μL) + blank buffer (60 μL). Ice-cold acetonitrile (160 μL), containing a suitable standard was added to all samples, they were shaken vigorously and centrifuged at 4,000 rpm for 20 min at 15°C. Supernatant (110 μL) from each sample was diluted with water (110 μL) and the sample analysed by LC-MS/MS.
(§6) % Free = 100 × (AREA in buffer × dilution factor)/(AREA in Plasma × dilution factor)
(§7) % Recovery = 100 ×[(Avg AREA in buffer × dilution factor) + (Avg AREA in Plasma × dilution factor)] / (Avg AREA in Total × dilution factor)

Mouse pharmacokinetics = type: in vivo; settings: for Clobs / AUC(0-inf) / Vd / half-life: 0.5 mg/kg iv, in a mixture of 5 compounds; for AUC(0-inf) / Vd / bioavailability / half-life: male, Swiss albino, plasma; for Vd: read-out: Vss; for bioavailability: 2.5 mg/kg oral, mixture of 5 compounds, calculated values > 100% shown as 100; for half-life: iv, 0.5 mg/kg, sampled over 24 h
HepG2 cells = assay: Cytotoxicity, HepG2 cells with MTT; type: cell-based, human; settings: Table 2; hepG2 cell line, 72 h incubation
Protocol: Activity against mammalian cells was determined using either of two standard assays. The first of these used MRC-5 cells with Alamar blue staining as previously described. The second used HepG2 cells monitored using 3-(4,5-dimethylthiazol-2-yl)-2,5-diphenyltetrazolium bromide (MTT) as previously described.

Kinetic solubility = type: physicochemical
Text: Table 4 in vitro, physicochemical and in vivo properties of compounds pictured in Fig 10. | column: Measured physicochemical properties / Kinetic solubility, pH 7.4 (uM); Measured physicochemical properties / Kinetic solubility, FaSSIF (uM); Measured physicochemical properties / Kinetic solubility, FeSSIF (uM)

[3] = Plasma protein binding in human plasma at 10 uM, equilibrium dialysis; type: in vitro ADME
Protocol: as §5, §6, §7

Juvenile S. mansoni = assay: In vitro juvenile (3 week old) S. mansoni worm assay; type: cell-based; settings: Schistosoma mansoni; Table 2; in vitro, 120 h incubation
Text: as §1, §2

[4] = Metabolic stability in mouse hepatocytes; type: in vitro ADME; settings: hepatocytes (suspension), pH 7.4, 90 min incubation, read-out: Mouse hepatocyte % remaining at 90 min
Protocol: as §3, §4

S. haematobium = tested on: S. haematobium; design: method as in PMID 28126024; settings: 40 mg/kg; cited from earlier work
S. japonicum = tested on: S. japonicum; design: method as in PMID 28126024; settings: 40 mg/kg; cited from earlier work
S. mansoni = tested on: S. mansoni; design: method as in PMID 28126024; settings: 40 mg/kg; cited from earlier work
[5] = tested on: S. mansoni juvenile worms; settings: cited from earlier work
S. mansoni infections = tested on: S. mansoni infections; design: method as in PMID 29126136; settings: cited from earlier work
S. japonicum adult = assay: In vitro adult S. japonicum worm assay; type: cell-based
Text: as §1, §2

[6] = In vivo efficacy, mouse model of juvenile (21-day old) S. mansoni infection; settings: female, CD1, plasma; mouse, Juvenile infection, oral 50 mg/kg, formulation corn oil; read-out: Plasma conc @24 h (efficacy experiment)
Protocol: (§8) Prior to in vivo efficacy experiments, a single animal was given a dose of drug (using the same formulation) that was twice as large as that planned for use in the efficacy experiments and was observed periodically for adverse clinical signs for 24h by trained veterinarians. Adverse clinical signs checked include postural defect, vocalization, oculo-nasal discharge, hypersalivation, change in activity, abnormal gait, respiration and pulse, piloerection, loss of pupillary reflex, eyelid reflex, chromodacryorrhea, reaction to handling, tremor, convulsions, prostration, diarrhoea, cachexia, emaciation. […] In vivo efficacy was assessed in female CD1 mice using methods based on those previously described. Mice were infected subcutaneously with 150 cercariae. Test compounds were suspended in 7% Tween-80 / 3% Ethanol / double distilled water and drug dispersal was facilitated by vortexing and using a sonicating water bath (Formulation “Aqueous”). Alternatively, drugs were first dissolved in DMSO, then diluted with corn oil to give a 1:19 DMSO:corn oil solution/suspension of test compound (Formulation “Corn oil”). Dosing was by oral gavage. Mice in the negative control groups were given the drug suspension vehicle only. Positive controls for treatment of adult, day 42 old, infections were treated with PZQ and those for juvenile, day 21 old, infections with artemether, which unlike PZQ is effective against the juvenile worm infections in mice. During and following treatment, mice were closely observed for any ill effects by staff experienced in animal handling. This involved individuals who were blinded to the treatment groups. Effects they were trained to look for included hunching, immobility, piloerection, subdued behaviour, diarrhoea and loss of body condition. None were seen. Worms were recovered by portal perfusion with citrate saline 8–14 days post treatment and counted. Differences between groups relative to the non-drug treated controls were assessed for statistical significance by Student’s unpaired t-test using GraphPad Prism Software. P values are presented as follows:- ns–P > 0.05 (not significant), * P ≤ 0.05, ** P ≤ 0.01, *** P ≤ 0.001, **** P ≤ 0.0001.
(§9) For pharmacokinetic analysis during the in vivo efficacy experiments individual animals were only sampled once. Samples were taken from one animal in each experimental group at each of 1, 4, 8 h and samples from two animals in each group were taken at 24 h.

[7] = tested on: S. mansoni juvenile worms; assay: as above; settings: mouse, Juvenile infection, oral 50 mg/kg, formulation corn oil
Protocol: as §8, §9

[8] = Table 2, in vitro, read-out: Adult S. mansoni EC50
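For Clobs in this document: three mice per experiment, dosed in 10% DMSO with 50 mM Na2HPO4 buffer plus Tween-80, plasma levels quantified by LC-MS against a calibration line prepared in blank matrix.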
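For F in this document: three mice per experiment, dosed in 10% DMSO with 50 mM Na2HPO4 buffer plus Tween-80, plasma levels quantified by LC-MS against a calibration line prepared in blank matrix.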
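For Vss in this document: three mice per experiment, dosed in 10% DMSO with 50 mM Na2HPO4 buffer plus Tween-80, plasma levels quantified by LC-MS against a calibration line prepared in blank matrix.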

Compound | EC50 (Adult S. mansoni; [8]) [nM] | remaining at 1.5 h, 1 µM [1] [%] | Clobs (Mouse pharmacokinetics) [mL/min/kg] | AUC(0-inf) (Mouse pharmacokinetics) [ng·h/mL] | Vd (Mouse pharmacokinetics) [L/kg] | bioavailability (Mouse pharmacokinetics) [%] | half-life (Mouse pharmacokinetics) [h] | EC50 (Juvenile S. mansoni) [nM] | remaining at 1.5 h, 1 µM [4] [%] | Cytotox TC50 (HepG2 cells) | further results
O=C(C1CCCCC1)N1CC(=O)N2CCc3ccccc3C2C1 (stereo not drawn) [PZQ, Praziquantel] | – | – | – | – | – | – | – | – | – | – | cure rate in children (S. haematobium): 73.6%; cure rate in children (S. japonicum): 95.3%; cure rate in children (S. mansoni): 76.4%; activity against the juvenile stages ([5]; both in vivo and in vitro): relatively ineffective
CO[C@H]1O[C@@H]2O[C@@]3(C)CC[C@H]4[C@H](C)CC[C@@H]([C@H]1C)[C@@]24OO3 [artemether] | – | – | – | – | – | – | – | – | – | – | efficacy against the juvenile worm infections in mice ([5]; mice): effective
CC(C)NCC1CCc2cc(CO)c([N+](=O)[O-])cc2N1 (stereo not drawn) [oxamniquine] | – | – | – | – | – | – | – | – | – | – | efficacy against S. mansoni infections (S. mansoni infections): effective

Second part, led by results:

EC50 (Adult S. mansoni; [8]) [nM] | remaining at 1.5 h, 1 µM [1] [%] | Clobs (Mouse pharmacokinetics) [mL/min/kg] | AUC(0-inf) (Mouse pharmacokinetics) [ng·h/mL] | Vd (Mouse pharmacokinetics) [L/kg] | bioavailability (Mouse pharmacokinetics) [%] | half-life (Mouse pharmacokinetics) [h] | EC50 (Juvenile S. mansoni) [nM] | remaining at 1.5 h, 1 µM [4] [%] | Compound | Cytotox TC50 (HepG2 cells) | further results
9 | 79 | 24.5 | 300 | 5 | 100 | 4.6 | 11.1 | 31 | CC(C)Oc1cc(-c2cn3c(-c4ccc5[nH]ncc5c4F)c(C(F)(F)F)nc3cn2)ccc1F [LSHTM-3690] | 9,250 nM | Mouse plasma protein %binding [2]: 99.8775%; recovery at 6 h, 10 µM ([2]; mouse, mouse plasma, pH 7.4): 93.9%; solubility kinetic at 24 h (Kinetic solubility; FaSSIF, pH 6.5, read-out: Kinetic solubility, FaSSIF): 188 µM (≈ 89 µg/mL); solubility kinetic at 24 h (Kinetic solubility; FeSSIF, pH 5, read-out: Kinetic solubility, FeSSIF): 196 µM (≈ 92.8 µg/mL); Human plasma protein %binding [3]: 99.925%; recovery at 6 h, 10 µM ([3]; human, human plasma, pH 7.4): 89%
40 | – | 6.33 | 1330 | 2.4 | 76 | 6.3 | 60 | – | CC(C)c1nn2cnc(-c3ccc(F)c(C(F)(F)F)c3)cc2c1-c1ccc2[nH]ncc2c1F [LSHTM-3644] | – | –
2.3 | 45 | 31.3 | 300 | 5.6 | 57.1 | 4.5 | 2.7 | 78 | CC(C)c1cc(-c2cn3c(-c4ccc5[nH]ncc5c4F)c(C(F)(F)F)nc3cn2)ccc1F [LSHTM-3661] | 17,000 nM | EC50 (S. japonicum adult; Schistosoma japonicum, S. japonicum, 120 h incubation, read-out: Sj adult EC50): 24.8 nM; Potency ratio Sj/Sm (S. japonicum adult; adult EC50 S. japonicum / S. mansoni): 10.9; EC50 (Adult S. mansoni; Table 3, S. mansoni, read-out: Sm adult EC50): 2.3 nM; solubility kinetic at 24 h (Kinetic solubility; pH 7.4, read-out: Kinetic solubility, pH 7.4): 0.04 µM (≈ 0.0183 µg/mL); concentration at 24 h [6]: 178 ng/mL; Worms remaining [7]: 0%
